Results as given in ChEMBL document CHEMBL1909046, “DrugMatrix in vitro pharmacology data”.

Columns and labels:
[1] = target: Voltage-gated inwardly rectifying potassium channel KCNH2 (Homo sapiens, UniProt Q12809); conditions: hek293; also: in other assays of this panel Not Active means under 50% inhibition at 10 µM
[2] = target: Beta-2 adrenergic receptor (Homo sapiens, UniProt P07550); experiment: DRUGMATRIX: Adrenergic beta2 radioligand binding (ligand: [3H] CGP-12177); assay type: cell membranes, CHO, Membrane; conditions: cho; Not Active = under 50% inhibition at 10 µM
Beta-2 adrenergic receptor, sequence (P07550 whole entry): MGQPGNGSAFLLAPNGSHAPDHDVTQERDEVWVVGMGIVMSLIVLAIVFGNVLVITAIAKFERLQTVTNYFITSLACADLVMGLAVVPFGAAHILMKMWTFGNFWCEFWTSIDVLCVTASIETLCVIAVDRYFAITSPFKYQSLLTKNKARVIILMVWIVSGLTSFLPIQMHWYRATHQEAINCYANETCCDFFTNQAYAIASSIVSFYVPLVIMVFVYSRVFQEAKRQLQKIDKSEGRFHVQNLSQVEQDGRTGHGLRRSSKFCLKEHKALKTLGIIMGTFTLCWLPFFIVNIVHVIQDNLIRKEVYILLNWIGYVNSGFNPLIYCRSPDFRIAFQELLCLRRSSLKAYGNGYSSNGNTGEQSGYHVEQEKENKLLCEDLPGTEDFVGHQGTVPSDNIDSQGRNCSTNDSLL

[3] = DRUGMATRIX: Glutamate, NMDA, Agonism radioligand binding (ligand: [3H] CGP-39653); assay type: cell membranes, Rattus norvegicus, Wistar, Cerebral cortex, Membrane; conditions: Not Active = under 50% inhibition at 10 µM
[4] = target: Carbonic anhydrase 2 (Homo sapiens, UniProt P00918); experiment: DRUGMATRIX: Carbonic Anhydrase II enzyme inhibition (substrate: 4-Nitrophenyl acetate (4-NPA)); assay type: tissue-based, Erythrocyte; conditions: erythrocyte; Not Active = under 50% inhibition at 10 µM
[5] = target: Mitogen-activated protein kinase 14 (Homo sapiens, UniProt Q16539); design: species or system Escherichia coli;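 also: inhibition of p38alpha enzyme activity in a biochemical kinase assay, with myelin basic protein serving as substrate; in other assays of this panel Not Active means under 50% inhibition at 10 µM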
Mitogen-activated protein kinase 14, sequence (Q16539 whole entry): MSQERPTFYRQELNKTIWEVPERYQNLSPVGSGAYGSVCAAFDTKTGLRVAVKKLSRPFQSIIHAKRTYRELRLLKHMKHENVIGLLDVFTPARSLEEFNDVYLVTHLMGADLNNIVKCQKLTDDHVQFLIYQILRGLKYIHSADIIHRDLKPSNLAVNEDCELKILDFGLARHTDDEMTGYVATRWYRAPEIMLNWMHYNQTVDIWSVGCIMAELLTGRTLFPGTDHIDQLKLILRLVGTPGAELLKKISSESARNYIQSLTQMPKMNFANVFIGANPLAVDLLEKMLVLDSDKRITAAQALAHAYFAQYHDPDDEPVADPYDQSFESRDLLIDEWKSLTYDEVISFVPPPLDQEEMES

[6] = target: T1, C-X-C chemokine receptor type 1 (Homo sapiens, UniProt P25024); also: in other assays of this panel Not Active means under 50% inhibition at 10 µM
T1 sequence (P25024 whole entry): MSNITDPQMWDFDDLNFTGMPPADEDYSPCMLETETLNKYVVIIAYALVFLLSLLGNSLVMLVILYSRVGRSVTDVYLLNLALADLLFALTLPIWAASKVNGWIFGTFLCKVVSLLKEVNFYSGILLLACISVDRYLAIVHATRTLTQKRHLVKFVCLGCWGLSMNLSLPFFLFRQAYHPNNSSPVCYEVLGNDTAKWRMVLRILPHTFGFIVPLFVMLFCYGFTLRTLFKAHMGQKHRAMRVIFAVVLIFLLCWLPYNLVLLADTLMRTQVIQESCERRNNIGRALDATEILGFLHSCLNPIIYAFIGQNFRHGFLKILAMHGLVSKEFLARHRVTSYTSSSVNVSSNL

[7] = target: Protein phosphatase 3 catalytic subunit alpha (Homo sapiens, UniProt Q08209); design: species or system Escherichia coli;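 also: inhibition of calcineurin (PP2B) enzyme activity, measured with DiFMUP as the substrate; in other assays of this panel Not Active means under 50% inhibition at 10 µM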

Voltage-gated inwardly rectifying potassium channel KCNH2, sequence (Q12809 whole entry): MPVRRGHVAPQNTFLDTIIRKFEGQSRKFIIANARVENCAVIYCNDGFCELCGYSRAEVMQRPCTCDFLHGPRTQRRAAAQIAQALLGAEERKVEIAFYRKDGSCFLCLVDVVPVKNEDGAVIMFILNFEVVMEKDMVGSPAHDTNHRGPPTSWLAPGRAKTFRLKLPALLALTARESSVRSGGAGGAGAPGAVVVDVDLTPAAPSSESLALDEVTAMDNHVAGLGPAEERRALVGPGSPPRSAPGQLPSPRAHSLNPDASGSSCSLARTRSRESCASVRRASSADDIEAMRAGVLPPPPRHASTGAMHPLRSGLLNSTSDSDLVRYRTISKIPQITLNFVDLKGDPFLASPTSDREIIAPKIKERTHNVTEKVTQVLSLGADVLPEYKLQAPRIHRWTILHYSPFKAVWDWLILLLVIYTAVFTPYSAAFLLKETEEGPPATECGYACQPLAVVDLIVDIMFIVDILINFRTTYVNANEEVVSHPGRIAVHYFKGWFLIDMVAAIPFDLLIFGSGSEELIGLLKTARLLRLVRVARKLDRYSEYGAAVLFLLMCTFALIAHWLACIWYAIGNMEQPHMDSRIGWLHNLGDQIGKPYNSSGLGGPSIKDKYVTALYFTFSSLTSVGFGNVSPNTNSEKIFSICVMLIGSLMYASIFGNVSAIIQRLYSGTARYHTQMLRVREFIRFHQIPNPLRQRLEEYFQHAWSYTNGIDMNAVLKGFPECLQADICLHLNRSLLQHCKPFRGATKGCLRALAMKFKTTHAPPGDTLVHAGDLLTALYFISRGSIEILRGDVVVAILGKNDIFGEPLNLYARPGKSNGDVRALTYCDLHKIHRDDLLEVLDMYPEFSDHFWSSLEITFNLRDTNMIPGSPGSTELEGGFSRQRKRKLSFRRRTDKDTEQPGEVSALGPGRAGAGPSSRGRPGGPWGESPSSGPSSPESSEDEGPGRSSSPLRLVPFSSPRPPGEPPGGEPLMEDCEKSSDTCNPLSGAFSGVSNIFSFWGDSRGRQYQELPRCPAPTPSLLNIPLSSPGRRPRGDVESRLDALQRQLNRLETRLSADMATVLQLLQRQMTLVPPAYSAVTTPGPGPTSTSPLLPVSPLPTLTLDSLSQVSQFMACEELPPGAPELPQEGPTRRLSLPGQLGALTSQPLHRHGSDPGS

CN1CCN(c2c(F)cc3c(=O)c(C(=O)O)cn(CCF)c3c2F)CC1 [FLEROXACIN]
Not Active: IC50 [1] | Ki [1] | IC50 [2] | IC50 [3] | Ki [3] | IC50 [4] | IC50 [5] | IC50 [6] | IC50 [7]

O=c1[nH]c(=O)n([C@H]2C[C@H](O)[C@@H](CO)O2)cc1F [FLOXURIDINE]
Not Active: IC50 [1] | Ki [1] | IC50 [2] | IC50 [3] | Ki [3] | IC50 [4] | IC50 [5] | IC50 [6] | IC50 [7]

COC(=O)Nc1nc2cc(C(=O)c3ccc(F)cc3)ccc2[nH]1 [FLUBENDAZOLE]
Not Active: IC50 [1] | Ki [1] | IC50 [2] | IC50 [3] | Ki [3] | IC50 [4] | IC50 [5] | IC50 [6] | IC50 [7]

CC(=O)OCC(=O)[C@@]1(O)CC[C@H]2[C@@H]3CCC4=CC(=O)CC[C@]4(C)[C@@]3(F)[C@@H](O)C[C@@]21C [FLUDROCORTISONE ACETATE]
Not Active: IC50 [1] | Ki [1] | IC50 [2] | IC50 [3] | Ki [3] | IC50 [4] | IC50 [5] | IC50 [6] | IC50 [7]

CCOC(=O)c1ncn2c1CN(C)C(=O)c1cc(F)ccc1-2 [FLUMAZENIL]
Not Active: IC50 [1] | Ki [1] | IC50 [2] | IC50 [3] | Ki [3] | IC50 [4] | IC50 [5] | IC50 [6] | IC50 [7]

CC(=O)OCC(=O)[C@@]12OC(C)(C)O[C@@H]1C[C@H]1[C@@H]3C[C@H](F)C4=CC(=O)C=C[C@]4(C)[C@@]3(F)[C@@H](O)C[C@@]12C [FLUOCINONIDE]
Not Active: IC50 [1] | Ki [1] | IC50 [2] | IC50 [3] | Ki [3] | IC50 [4] | IC50 [5] | IC50 [6] | IC50 [7]

O=C(O)P(=O)(O)O [FOSCARNET]
Not Active: IC50 [1] | Ki [1] | IC50 [2] | IC50 [3] | Ki [3] | IC50 [4] | IC50 [5] | IC50 [6] | IC50 [7]

Cc1ccc(C)c(OCCCC(C)(C)C(=O)O)c1 [GEMFIBROZIL]
Not Active: IC50 [1] | Ki [1] | IC50 [2] | IC50 [3] | Ki [3] | IC50 [4] | IC50 [5] | IC50 [6] | IC50 [7]

O=c1c(-c2ccc(O)cc2)coc2cc(O)cc(O)c12 [GENISTEIN]
Not Active: IC50 [1] | Ki [1] | IC50 [2] | IC50 [3] | Ki [3] | IC50 [4] | IC50 [5] | IC50 [6] | IC50 [7]

CCC1=C(C)CN(C(=O)NCCc2ccc(S(=O)(=O)NC(=O)N[C@H]3CC[C@H](C)CC3)cc2)C1=O [GLIMEPIRIDE]
Not Active: IC50 [1] | Ki [1] | IC50 [2] | IC50 [3] | Ki [3] | IC50 [4] | IC50 [5] | IC50 [6] | IC50 [7]

Nc1cc(-c2ccncc2)c[nH]c1=O [INAMRINONE]
Not Active: IC50 [1] | Ki [1] | IC50 [2] | IC50 [3] | Ki [3] | IC50 [4] | IC50 [5] | IC50 [6] | IC50 [7]

CCCCC1=NC2(CCCC2)C(=O)N1Cc1ccc(-c2ccccc2-c2nnn[nH]2)cc1 [IRBESARTAN]
Not Active: IC50 [1] | Ki [1] | IC50 [2] | IC50 [3] | Ki [3] | IC50 [4] | IC50 [5] | IC50 [6] | IC50 [7]

CN1CCC(=C2c3ccccc3CC(=O)c3sccc32)CC1 [KETOTIFEN]
Not Active: IC50 [1] | Ki [1] | IC50 [2] | IC50 [3] | Ki [3] | IC50 [4] | IC50 [5] | Ki [6] | IC50 [7]

N[C@@H](Cn1ccc(=O)c(O)c1)C(=O)O [L-MIMOSINE]
Not Active: IC50 [1] | Ki [1] | IC50 [2] | IC50 [3] | Ki [3] | IC50 [4] | IC50 [5] | IC50 [6] | IC50 [7]

C[N+](C)(C)C[C@H](O)CC(=O)[O-] [LEVOCARNITINE]
Not Active: IC50 [1] | Ki [1] | IC50 [2] | IC50 [3] | Ki [3] | IC50 [4] | IC50 [5] | IC50 [6] | IC50 [7]

C[C@H]1COc2c(N3CCN(C)CC3)c(F)cc3c(=O)c(C(=O)O)cn1c23.C[C@H]1COc2c(N3CCN(C)CC3)c(F)cc3c(=O)c(C(=O)O)cn1c23.O [LEVOFLOXACIN]
Not Active: IC50 [1] | Ki [1] | IC50 [2] | IC50 [3] | Ki [3] | IC50 [4] | IC50 [5] | IC50 [6] | IC50 [7]

Cc1cccc(C)c1NC(=O)C1CCCCN1C (configuration not stated) [MEPIVACAINE]
Not Active: IC50 [1] | Ki [1] | IC50 [2] | IC50 [3] | Ki [3] | IC50 [4] | IC50 [5] | IC50 [6] | IC50 [7]

CN(C)C(=N)NC(=N)N [METFORMIN]
Not Active: IC50 [1] | Ki [1] | IC50 [2] | IC50 [3] | Ki [3] | IC50 [4] | IC50 [5] | IC50 [6] | IC50 [7]

CC(C)(C)NCC(O)COc1cccc2c1CC(O)C(O)C2 (configuration not stated) [NADOLOL]
Not Active: IC50 [1] | Ki [1] | IC50 [2] | IC50 [3] | Ki [3] | IC50 [4] | IC50 [5] | IC50 [6] | IC50 [7]

C[C@]12CC[C@H]3[C@@H](CCC4=CC(=O)CC[C@@H]43)[C@@H]1CC[C@@H]2O [NANDROLONE]
Not Active: IC50 [1] | Ki [1] | IC50 [2] | IC50 [3] | Ki [3] | IC50 [4] | IC50 [5] | IC50 [6] | IC50 [7]

C[C@@H]1C/C=C/C=C/C=C/C=C/[C@H](O[C@@H]2O[C@H](C)[C@@H](O)[C@H](N)[C@@H]2O)C[C@@H]2O[C@](O)(C[C@@H](O)C[C@H]3O[C@@H]3/C=C/C(=O)O1)C[C@H](O)[C@H]2C(=O)O [NATAMYCIN]
Not Active: IC50 [1] | Ki [1] | IC50 [2] | IC50 [3] | Ki [3] | IC50 [4] | IC50 [5] | IC50 [6] | IC50 [7]

CN(C)C(=O)Oc1cccc([N+](C)(C)C)c1.[Br-] [NEOSTIGMINE BROMIDE]
Not Active: IC50 [1] | Ki [1] | IC50 [2] | IC50 [3] | Ki [3] | IC50 [4] | IC50 [5] | IC50 [6] | IC50 [7]

NC(=O)c1cccnc1 [NIACINAMIDE]
Not Active: IC50 [1] | Ki [1] | IC50 [2] | IC50 [3] | Ki [3] | IC50 [4] | IC50 [5] | IC50 [6] | IC50 [7]
